Results on three compounds are retold here after patent publication US9623049B2, “Immunotherapy using redirected allogeneic cells” (YEDA RESEARCH AND DEVELOPMENT CO. LTD., priority 2010, dated 2017).

Series [1] in a line: FACS analysis of blood and spleen lymphocytes after transfer of allogeneic T-bodies with or without FTY720. It is filed as in vivo, Balb/c mice. The procedure: Prior to splenocyte staining, RBC were lysed using ACK buffer. Lymphocytes (1×10^6) were incubated with the appropriate antibodies in staining buffer (5% BSA, 0.05% sodium azide in phosphate-buffered saline (PBS)) for 30 minutes on ice. Alternatively, Annexin V staining buffer was used as indicated. CFSE (Carboxyfluorescein succinimidyl ester) labeling was performed according to the manufacturer's instructions (Molecular Probes. Eugene, Oreg.). Cells were analyzed by flow cytometry (LSRII, Becton Dickinson. Mountain View. Calif.) and FacsDiva software (Becton Dickinson).
This enhanced persistence of allogeneic T-bodies can explain the increased survival of tumor bearing mice treated with allogeneic T-bodies and FTY720.

Series [2] has as its system Renca-Her2/neu tumor. The series is described as follows: Survival of Renca-Her2/neu tumor bearing mice after irradiation and T-body transfer (Example 10). The format is in vivo, Balb/c mice. As to the method:
Adoptive transfer experiments. Mice were injected with […] Renca-Her2/neu cells iv on day 1. All mice (including the control group) were irradiated on day 7 with 200 or 400 rads (137Cs source). Prior to transfer, all T cells were activated with Con-A 1 μg/ml for 48 hours, and then cultured for 3-5 more days with 350 u/ml IL-2. Either 30×10^6 or 108 T cells were transferred in a split dose on days 8 and 10. In some experiments, FTY720 was injected ip (0.3 mg/kg) on days 8-18. Donor cells were either from wildtype mice (Balb/c or C57BL/6) or from N29 CAR transgenic mice (Balb/c or C57BL/6 backgrounds). In some cases, T-bodies from wild type mice (Balb/c or C57Bl) were transduced with the CAR.
To investigate the potential of allogeneic adoptive cell therapy, the BALB/c derived mouse renal cell carcinoma (Renca) cell line expressing the human Her2/neu was used. Following intravenous inoculation of the tumor, experimental metastases mainly developed in the lungs, yet, as was reported in similar systems (ref. 62, 63) extra-pulmonary metastases also developed. […] Adoptive transfer of T cells redirected with a Her2/neu-specific chimeric antigen receptor (‘T-bodies’) was performed on days 8 and 10 (FIG. 21). The CAR is composed of a scFv fragment derived from the Her2/Neu-specific N29 antibody fused to a CD28 co-activation moiety and FcRγ signaling sequences (ref. 8). […] T-bodies were obtained from transgenic (Tg) mice of BALB/c (Balb-N29) or C57BL/6 (Black-N29) background, or by the transduction of wild type T cells with a retrovector harboring the Her2/neu-specific CAR. Transduced T cells were activated as part of their transduction, while naïve transgenic (Tg) T cells were also activated to facilitate comparison with transduced T cells.

For series [3], the system named is Renca-erbb2 pulmonary metastases.
Procedure: After determining safe regimens for adoptive transfer, the inventors tested the efficacy of tumor rejection by CR redirected T cells. The inventors used the Renca-erbb2, renal cancer cell line, stably transfected with erbB2 (HER2) which was injected intravenously into Balb/c mice to generate experimental pulmonary metastases. As effectors, the inventors used splenocytes from transgenic mice expressing a HER2 specific chimeric receptor (based on the N29 antibody derived scFv, FIGS. 7A-B) under the CD2 promoter (which is expressed in T and NK cells [8]). The HER2-specific transgenic mice were kept on two backgrounds: C57Bl and Balb/c (named C57Bl-N29 and Balb-N29 respectively). Wild type Balb/c mice were injected with the Renca-erbb2 on day 1, irradiated on day 7, and HER2 specific T-bodies were injected on day 8 (and also on day 10 and 12 in some cases).
The inventors therefore compared the efficacy of allogeneic (C57Bl-N29) to syngeneic (Balb-N29) T-bodies, and to ensure that allogeneic cells mediate a specific antitumor response (and not just an allogeneic response), they also tested the effect of activated wild type C57Bl cells. Previous experiments in the inventors' lab have established that the minimal regimen which provides significant therapeutic benefit (boosting median survival to 90 days) using syngeneic Balb-N29 is irradiation with 200 rad and transfer of 3 doses of 10 million cells each (abbreviated as 200/30 regimen) complemented with low dose IL-2 (1000 u) twice daily. The purpose was to test if one can provide therapeutic benefit in this model using allogeneic C57Bl-N29 cells. The inventors used the initial regimen as a starting point with one important difference: instead of using naïve transgenic cells, the cells were pre-activated before transfer for 48 hours with concanavalin A. The reason for the change was to simulate a more clinically relevant situation in which lymphocytes will need to be activated in order to facilitate retroviral transduction with the chimeric receptor.
Series [4] addresses S1P1 (Homo sapiens, UniProt P21453). As to conditions: high affinity for S1P1; cited from earlier work.
For series [5], the target named is T1, S1P3 (Homo sapiens, UniProt Q99500). As to conditions: read-out: ED50 (the source's name); cited from earlier work.
The conditions of series [6]: in vivo; cited from earlier work.
Series [7] has as its target S1P5 receptors (Homo sapiens, UniProt Q9H228). The following applies: at concentrations up to 10 μM; cited from earlier work.
Series [8] deals with S1P2 (Homo sapiens, UniProt O95136). The following applies: at concentrations up to 10 μM; cited from earlier work.
The target in series [9] is T1, S1P3. As to conditions: at concentrations up to 10 μM; cited from earlier work.
Series [10] has as its target T2, S1P4 (Homo sapiens, UniProt O95977).
T2 sequence (O95977 1-384): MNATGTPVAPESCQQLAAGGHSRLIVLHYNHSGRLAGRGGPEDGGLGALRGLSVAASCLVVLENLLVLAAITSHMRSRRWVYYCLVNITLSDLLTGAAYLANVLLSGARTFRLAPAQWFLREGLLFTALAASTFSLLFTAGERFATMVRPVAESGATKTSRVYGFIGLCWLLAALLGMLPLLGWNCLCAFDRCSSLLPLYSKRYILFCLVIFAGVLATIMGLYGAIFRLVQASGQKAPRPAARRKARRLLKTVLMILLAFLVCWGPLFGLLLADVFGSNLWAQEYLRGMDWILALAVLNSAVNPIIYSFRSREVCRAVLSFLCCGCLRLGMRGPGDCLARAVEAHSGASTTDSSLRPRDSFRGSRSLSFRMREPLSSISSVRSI
The following applies: at concentrations up to 10 μM; cited from earlier work.

The mark [11] stands for this setting: 400 rads and 10^8 allo-T-bodies with FTY720.

A value given as a limit tells only on which side of the number the result lay.

T1 sequence (Q99500 whole entry, species assumed): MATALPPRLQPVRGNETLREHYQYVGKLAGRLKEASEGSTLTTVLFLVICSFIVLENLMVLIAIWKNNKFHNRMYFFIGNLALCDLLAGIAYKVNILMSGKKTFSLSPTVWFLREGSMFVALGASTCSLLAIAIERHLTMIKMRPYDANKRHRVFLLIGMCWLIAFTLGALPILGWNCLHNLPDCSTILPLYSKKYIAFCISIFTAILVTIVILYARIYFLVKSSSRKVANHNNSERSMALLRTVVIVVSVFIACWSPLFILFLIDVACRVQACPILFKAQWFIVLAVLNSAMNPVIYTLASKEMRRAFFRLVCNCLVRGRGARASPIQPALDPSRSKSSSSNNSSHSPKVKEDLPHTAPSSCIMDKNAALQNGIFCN
S1P5 receptors, sequence (Q9H228 whole entry): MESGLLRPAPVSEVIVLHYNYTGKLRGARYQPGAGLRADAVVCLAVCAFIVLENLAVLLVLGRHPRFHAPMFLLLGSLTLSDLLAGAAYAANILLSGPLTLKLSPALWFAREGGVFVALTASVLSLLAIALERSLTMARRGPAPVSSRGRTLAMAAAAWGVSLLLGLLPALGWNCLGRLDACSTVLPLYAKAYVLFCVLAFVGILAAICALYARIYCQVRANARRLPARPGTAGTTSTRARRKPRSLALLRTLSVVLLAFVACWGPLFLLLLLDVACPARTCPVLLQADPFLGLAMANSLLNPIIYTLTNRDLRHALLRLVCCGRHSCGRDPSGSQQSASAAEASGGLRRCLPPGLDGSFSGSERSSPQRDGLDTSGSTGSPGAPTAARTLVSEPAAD
S1P1, sequence (P21453 whole entry): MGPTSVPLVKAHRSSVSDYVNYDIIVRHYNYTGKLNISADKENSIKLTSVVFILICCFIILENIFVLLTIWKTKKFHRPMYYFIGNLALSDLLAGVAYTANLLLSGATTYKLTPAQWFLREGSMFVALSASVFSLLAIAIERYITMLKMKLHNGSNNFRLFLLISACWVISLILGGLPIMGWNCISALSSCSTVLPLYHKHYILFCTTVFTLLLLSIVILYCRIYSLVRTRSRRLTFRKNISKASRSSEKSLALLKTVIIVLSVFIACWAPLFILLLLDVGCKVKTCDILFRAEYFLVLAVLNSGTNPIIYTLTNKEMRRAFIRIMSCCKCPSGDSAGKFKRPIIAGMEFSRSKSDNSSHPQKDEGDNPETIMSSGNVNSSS
S1P2, sequence (O95136 whole entry, species assumed): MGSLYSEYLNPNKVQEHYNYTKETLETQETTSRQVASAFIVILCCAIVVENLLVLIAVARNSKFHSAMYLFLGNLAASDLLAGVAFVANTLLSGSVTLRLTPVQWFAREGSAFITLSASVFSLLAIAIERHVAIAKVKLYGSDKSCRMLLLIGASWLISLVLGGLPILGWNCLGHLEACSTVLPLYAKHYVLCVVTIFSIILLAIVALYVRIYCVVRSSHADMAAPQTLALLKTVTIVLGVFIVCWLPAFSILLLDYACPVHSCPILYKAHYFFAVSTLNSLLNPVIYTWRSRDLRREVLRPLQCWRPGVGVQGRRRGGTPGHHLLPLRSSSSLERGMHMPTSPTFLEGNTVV

On to `CCCCCCCCc1ccc(CCC(N)(CO)CO)cc1.Cl` [FTY720, 2-amino-2-[2-(4-octylphenyl)ethyl]propane-1,3-diol], for which the “lymphocyte egression to the blood” value in series [1] (4 days after transfer of allogeneic T-bodies, CD3 staining of blood) is given as “inhibited lymphocyte egression to the blood”. In addition, in [1] (day 7 after transfer, anti-H2Kb staining, with vs without FTY720), the “allo-T-bodies in the spleen” value is reported as “higher numbers of allo-T-bodies detected in the spleen on day 7”. The “effect of FTY720 alone on survival of tumor bearing mice” value in [2] (0.3 mg/kg i.p for the first 10 days after irradiation, no T-bodies) is given as “not to affect the survival of tumor bearing mice”. Also, in [2] (setting [11]), the “long term survival (>350 days)” value is listed as “most of the remaining mice survived long term” and the “mice died of GvHD” value stood at 16%. For the same compound, the “mice surviving long term (>350 days)” value in series [2] (400 rads and 30x10^6 allogeneic T-bodies with FTY720 0.3 mg/kg ip 10 days) turned out to be 58%. Moreover, in [2] (400 rads and 30x10^6 syngeneic T-bodies with FTY720 0.3 mg/kg ip 10 days), the median survival turned out to be 90 days. In [3] (200/100 regimen, C57Bl-N29 with FTY720), this compound gave a long term survivors of 80%. The “surviving after day 250” value in [3] (400/30 regimen, C57Bl-N29 with FTY720) is not below 50%. In addition, the median survival entry in [3] (400/30 regimen, C57Bl-N29 with FTY720 0.3 mg/kg ip daily days 8-18) was “not reached”. Moreover, the “GVHD mortality (mice died)” value in [3] (400/30 regimen, activated wild type C57Bl cells with FTY720 0.3 mg/kg ip daily days 8-18) was 2/6. Further, in series [3] (temporary FTY720 treatment added to allogeneic cells (FIG. 18)), the “tumor bearing mice survived long term” value is 50-80%.
On to `NC(CO)(CCc1ccc(Sc2cccc(Oc3ccccc3)c2)cc1Cl)COP(=O)(O)O` (stereo not shown) [KRP-203 phosphate, 2-ammonio-4-(2-chloro-4-(3-phenoxyphenylthio)phenyl)-2-(hydroxymethyl)butyl hydrogen phosphate], for which the ED50 result in series [4] is listed as “in the nM range”. Further, the EC50 in [5] was more than 1000 nM. Besides, in series [6], the “reduction of incidence of bradycardia compared to FTY720” value is 10 fold.
For the compound `FC(F)(F)c1cccc(-c2noc(-c3cc(-c4ccccc4)c(C(F)(F)F)s3)n2)c1` [SEW2871, 5-[4-Phenyl-5-(trifluoromethyl)thiophen-2-yl]-3-[3-(trifluoromethyl)phenyl]1,2,4-oxadiazole], the receptor activation result in [7], in series [8], in [9] and in series [10] was “does not activate” throughout.
